Here are results for one compound from paper PMC2910749 (Chembiochem : a European journal of chemical biology, 2008).

One test deals with T1, human β-GCase (Homo sapiens, UniProt P04062, R534H).
T1 sequence (P04062 40-536 R534H): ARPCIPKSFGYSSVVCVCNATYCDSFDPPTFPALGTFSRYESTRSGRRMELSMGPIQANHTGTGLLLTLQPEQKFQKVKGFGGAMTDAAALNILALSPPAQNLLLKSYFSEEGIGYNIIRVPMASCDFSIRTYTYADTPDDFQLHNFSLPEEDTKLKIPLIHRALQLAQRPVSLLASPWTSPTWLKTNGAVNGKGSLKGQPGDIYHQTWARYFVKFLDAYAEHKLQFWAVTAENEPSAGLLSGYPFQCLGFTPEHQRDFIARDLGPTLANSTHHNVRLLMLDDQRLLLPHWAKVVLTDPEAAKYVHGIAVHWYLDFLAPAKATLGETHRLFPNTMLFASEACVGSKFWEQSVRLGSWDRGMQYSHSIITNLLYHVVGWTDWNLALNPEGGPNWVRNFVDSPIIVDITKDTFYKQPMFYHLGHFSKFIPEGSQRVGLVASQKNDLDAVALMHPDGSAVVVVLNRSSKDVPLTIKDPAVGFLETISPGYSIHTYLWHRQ
Briefly: GCase inhibition, colourimetric substrate pNPGlc. The format is biochemical. The following applies: IC50 for GCase (rounded, text), substrate not stated at place.

In test [1] the target is T2, human cytosolic β-glucosidase (Homo sapiens, UniProt Q9H227).
T2 sequence (Q9H227 1-469): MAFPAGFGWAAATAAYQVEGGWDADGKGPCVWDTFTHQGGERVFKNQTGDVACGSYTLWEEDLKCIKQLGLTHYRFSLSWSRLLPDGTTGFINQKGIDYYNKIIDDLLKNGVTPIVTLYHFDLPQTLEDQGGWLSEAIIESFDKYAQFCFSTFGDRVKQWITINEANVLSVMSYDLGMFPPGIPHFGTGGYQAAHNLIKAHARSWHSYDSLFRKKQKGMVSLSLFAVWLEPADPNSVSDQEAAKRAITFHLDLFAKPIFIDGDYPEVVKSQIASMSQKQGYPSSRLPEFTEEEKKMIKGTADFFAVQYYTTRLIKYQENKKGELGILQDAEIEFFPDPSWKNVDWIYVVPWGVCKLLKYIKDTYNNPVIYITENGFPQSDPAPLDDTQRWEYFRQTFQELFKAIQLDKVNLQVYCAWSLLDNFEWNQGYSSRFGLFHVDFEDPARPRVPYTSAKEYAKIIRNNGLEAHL
Briefly: Glycosidase specificity: cytosolic. The format is biochemical.

`O=C(Nc1ccncc1)c1ccc(Oc2cc(Cl)cc(Cl)c2)o1` [compound 2, 5-(3,5-dichlorophenoxy)-N-(4-pyridinyl)-2-furamide] came in with an IC50 against human β-GCase of 5 µM. The “inhibition of neutral β-glucosidase” value in test [1] was “virtually non-inhibitory”.
